# Reference: ChEMBL document CHEMBL3603798, “Computer-aided identification, synthesis, and biological evaluation of novel inhibitors for botulinum neurotoxin serotype A” (Bioorg Med Chem, 2015)
# Active and inactive are the calls of the source. The calls are words filed in the database; no cut-off is given here.
# Tests used:
# [1] = target: Botulinum neurotoxin type A (Clostridium botulinum) (UniProt P0DPI0); experiment: Inhibition of Clostridium botulinum neurotoxin type A light chain incoulated in mouse Neuro2a cells assessed as reduction in SNAP-25 cleavage at 10 uM incubated for 48 hrs by SDS-PAGE based Western blotting method; type: cell-based
# [2] = Toxicity against mouse Neuro2a cells assessed as reduction in cell viability at 10 to 100 uM incubated for 48 hrs; type: cell-based; settings: n2a
# [3] = target: Botulinum neurotoxin type A (Clostridium botulinum, UniProt P0DPI0); experiment: Inhibition of Clostridium botulinum neurotoxin type A light chain by SNAPtide assay
# Chain of Botulinum neurotoxin type A (P0DPI0 2-448 limits assumed): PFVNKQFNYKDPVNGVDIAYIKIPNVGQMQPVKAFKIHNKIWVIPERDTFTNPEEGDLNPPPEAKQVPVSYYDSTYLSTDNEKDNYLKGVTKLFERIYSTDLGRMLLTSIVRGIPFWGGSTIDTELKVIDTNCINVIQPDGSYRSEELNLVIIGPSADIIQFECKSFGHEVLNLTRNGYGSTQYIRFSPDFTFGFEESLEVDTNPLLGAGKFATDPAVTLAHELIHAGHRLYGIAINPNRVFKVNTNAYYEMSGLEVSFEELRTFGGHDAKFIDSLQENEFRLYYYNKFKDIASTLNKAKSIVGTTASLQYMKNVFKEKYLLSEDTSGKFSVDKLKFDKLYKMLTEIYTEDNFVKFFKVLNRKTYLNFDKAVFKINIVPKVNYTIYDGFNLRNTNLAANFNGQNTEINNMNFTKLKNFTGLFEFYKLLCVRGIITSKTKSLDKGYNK
# Chain of Botulinum neurotoxin type A (Clostridium botulinum) (P0DPI0 2-448 limits assumed): as above
Compound,inhibition [1],Activity [2],IC50 [3]
O=C(COc1ccccc1/C=C1\NC(=O)N(Cc2ccccc2F)C1=O)Nc1ccc(F)cc1,Active,Non-toxic,22 µM
O=C(COc1ccc(/C=C2\NC(=O)N(Cc3ccccc3F)C2=O)cc1)Nc1ccc(F)cc1,,,26 µM
O=c1c2cc3c(cc2n(Cc2nc(-c4ccc(C(F)(F)F)cc4)no2)c(=O)n1Cc1nc(-c2ccc(C(F)(F)F)cc2)no1)OCO3,,,16 µM
COc1cccc(CN2C(=O)c3ccccc3[C@@H]2C(=O)NC2CCC(C)CC2)c1 (stereo not given in full),,,157 µM
COC(=O)c1c(C)nc2n(CCN3CCCCC3)c3ccccc3n12,,,55 µM
N=C(N)NCCC[C@H](NC(=O)[C@@H](N)CCCNC(=N)N)C(=O)NCC(=O)N[C@@H](CS)C(=O)O,,,31 µM
Cc1cc(NC(=S)N(CCCN2CCC[C@@H](C)C2)Cc2cccs2)ccc1Cl,,,92 µM
O=C(COc1cccc(/C=C2\NC(=O)N(Cc3ccccc3F)C2=O)c1)Nc1ccc(F)cc1,,,> 50 µM
CC[C@@H]1Oc2ccccc2N(CC(=O)NCCCN2CCC(Cc3ccccc3)CC2)C1=O,,,154 µM
O=c1[nH]c2cc3c(cc2c(=O)n1CCc1nc(-c2ccc(C(F)(F)F)cc2)no1)OCO3,Active,Non-toxic,24 µM
Cc1ccc(-c2nc(SCC(=O)N3CCCC[C@@H]3C)c(S(=O)(=O)c3ccccc3)[nH]2)cc1,,,159 µM
